Test results taken from the supplement of paper PMC10883282.
± gives the standard deviation of the averaged measurements.

How the values were obtained:
Assay in all cases: relative viability vs DMSO control (72 h) (fraction); higher = more viable cells
SYO-1 = test system: SYO-1
Summary of the method: (§1)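 Sarcoma cell lines were plated in 384 wells to reach 80–90% confluence, treated after 24 h with 2.5 µl of serially diluted compound and held 72 h at 37 °C, 5% CO2. Relative viability was taken as percent growth from ATPLite readings, averaged over up to triplicate wells. The values were rescaled so that 1 marks full and 0 marks none.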

RD = test system: RD
Summary of the method: as §1

SW684 = test system: SW684
Summary of the method: as §1

SW872 = test system: SW872
Summary of the method: as §1

HS729 = test system: HS729
Summary of the method: as §1

SW1353 = test system: SW1353
Summary of the method: as §1

KHOS-NP = test system: KHOS-NP
Summary of the method: as §1

G401 = test system: G401
Summary of the method: as §1

HT1080 = test system: HT1080
Summary of the method: as §1

RD-ES = test system: RD-ES
Summary of the method: as §1

SK-LMS-1 = test system: SK-LMS-1
Summary of the method: as §1

KHOS-240S = test system: KHOS-240S
Summary of the method: as §1

COc1cc(Nc2c(C#N)cnc3cc(OCCCN4CCN(C)CC4)c(OC)cc23)c(Cl)cc1Cl [Bosutinib]
Conditions | relative viability
G401, 0.00017 µM | 1.09 ± 0.028
G401, 0.00051 µM | 1.09 ± 0.057
G401, 0.00152 µM | 1.08 ± 0.05
G401, 0.00457 µM | 1.06 ± 0.027
G401, 0.01372 µM | 1.09 ± 0.04
G401, 0.04115 µM | 1.09 ± 0.038
G401, 0.1235 µM | 1.08 ± 0.03
G401, 0.3704 µM | 1.08 ± 0.019
G401, 1.111 µM | 1.03 ± 0.053
G401, 3.333 µM | 0.909 ± 0.014
G401, 10 µM | 0.0203 ± 0.014
HS729, 0.00017 µM | 1.06 ± 0.082
HS729, 0.00051 µM | 1.04 ± 0.08
HS729, 0.00152 µM | 1.1 ± 0.029
HS729, 0.00457 µM | 1.05 ± 0.031
HS729, 0.01372 µM | 1.07 ± 0.046
HS729, 0.04115 µM | 1.05 ± 0.041
HS729, 0.1235 µM | 0.978 ± 0.091
HS729, 0.3704 µM | 0.922 ± 0.094
HS729, 1.111 µM | 0.773 ± 0.038
HS729, 3.333 µM | 0.79 ± 0.055
HS729, 10 µM | 0.107 ± 0.11
HT1080, 0.00017 µM | 1.14 ± 0.032
HT1080, 0.00051 µM | 1.14 ± 0.041
HT1080, 0.00152 µM | 1.09 ± 0.074
HT1080, 0.00457 µM | 1.14 ± 0.033
HT1080, 0.01372 µM | 1.11 ± 0.1
HT1080, 0.04115 µM | 1.16 ± 0.033
HT1080, 0.1235 µM | 1.14 ± 0.03
HT1080, 0.3704 µM | 1.14 ± 0.027
HT1080, 1.111 µM | 1.05 ± 0.11
HT1080, 3.333 µM | 0.775 ± 0.079
HT1080, 10 µM | 0.0548 ± 0.011
KHOS-240S, 0.00017 µM | 1.07 ± 0.036
KHOS-240S, 0.00051 µM | 1.08 ± 0.048
KHOS-240S, 0.00152 µM | 1.08 ± 0.066
KHOS-240S, 0.00457 µM | 1.1 ± 0.082
KHOS-240S, 0.01372 µM | 1.08 ± 0.04
KHOS-240S, 0.04115 µM | 1.06 ± 0.051
KHOS-240S, 0.1235 µM | 1.04 ± 0.041
KHOS-240S, 0.3704 µM | 0.962 ± 0.013
KHOS-240S, 1.111 µM | 0.734 ± 0.023
KHOS-240S, 3.333 µM | 0.49 ± 0.013
KHOS-240S, 10 µM | 0.0326 ± 0.0035
KHOS-NP, 0.00017 µM | 1.08 ± 0.017
KHOS-NP, 0.00051 µM | 1.12 ± 0.015
KHOS-NP, 0.00152 µM | 1.13 ± 0.025
KHOS-NP, 0.00457 µM | 1.11 ± 0.016
KHOS-NP, 0.01372 µM | 1.117 ± 0.011
KHOS-NP, 0.04115 µM | 1.11 ± 0.02
KHOS-NP, 0.1235 µM | 1.1 ± 0.044
KHOS-NP, 0.3704 µM | 1.01 ± 0.017
KHOS-NP, 1.111 µM | 0.837 ± 0.044
KHOS-NP, 3.333 µM | 0.482 ± 0.033
KHOS-NP, 10 µM | 0.264 ± 0.019
RD, 0.00017 µM | 1.11 ± 0.031
RD, 0.00051 µM | 1.11 ± 0.032
RD, 0.00152 µM | 1.12 ± 0.05
RD, 0.00457 µM | 1.11 ± 0.065
RD, 0.01372 µM | 1.11 ± 0.032
RD, 0.04115 µM | 1.14 ± 0.045
RD, 0.1235 µM | 1.15 ± 0.078
RD, 0.3704 µM | 1.12 ± 0.071
RD, 1.111 µM | 0.88 ± 0.045
RD, 3.333 µM | 0.665 ± 0.03
RD, 10 µM | 0.0202 ± 0.003
RD-ES, 0.00017 µM | 0.965 ± 0.058
RD-ES, 0.00051 µM | 0.981 ± 0.028
RD-ES, 0.00152 µM | 0.987 ± 0.03
RD-ES, 0.00457 µM | 0.972 ± 0.028
RD-ES, 0.01372 µM | 0.98 ± 0.027
RD-ES, 0.04115 µM | 0.974 ± 0.034
RD-ES, 0.1235 µM | 0.941 ± 0.021
RD-ES, 0.3704 µM | 0.906 ± 0.029
RD-ES, 1.111 µM | 0.715 ± 0.0075
RD-ES, 3.333 µM | 0.472 ± 0.01
RD-ES, 10 µM | 0.0125 ± 0.0015
SK-LMS-1, 0.00017 µM | 1.06 ± 0.012
SK-LMS-1, 0.00051 µM | 1.07 ± 0.048
SK-LMS-1, 0.00152 µM | 1.08 ± 0.031
SK-LMS-1, 0.00457 µM | 1.07 ± 0.047
SK-LMS-1, 0.01372 µM | 1.1 ± 0.066
SK-LMS-1, 0.04115 µM | 1.16 ± 0.045
SK-LMS-1, 0.1235 µM | 1.22 ± 0.058
SK-LMS-1, 0.3704 µM | 1.24 ± 0.028
SK-LMS-1, 1.111 µM | 1.1 ± 0.032
SK-LMS-1, 3.333 µM | 0.873 ± 0.02
SK-LMS-1, 10 µM | 0.0696 ± 0.0023
SW684, 0.00017 µM | 1.24 ± 0.013
SW684, 0.00051 µM | 1.25 ± 0.013
SW684, 0.00152 µM | 1.306 ± 0.0093
SW684, 0.00457 µM | 1.27 ± 0.02
SW684, 0.01372 µM | 1.25 ± 0.026
SW684, 0.04115 µM | 1.28 ± 0.052
SW684, 0.1235 µM | 1.33 ± 0.053
SW684, 0.3704 µM | 1.31 ± 0.046
SW684, 1.111 µM | 1.05 ± 0.018
SW684, 3.333 µM | 0.6 ± 0.031
SW684, 10 µM | 0.101 ± 0.0037
SW872, 0.00017 µM | 1.1 ± 0.026
SW872, 0.00051 µM | 1.131 ± 0.0085
SW872, 0.00152 µM | 1.12 ± 0.029
SW872, 0.00457 µM | 1.12 ± 0.03
SW872, 0.01372 µM | 1.12 ± 0.015
SW872, 0.04115 µM | 1.123 ± 0.011
SW872, 0.1235 µM | 1.085 ± 0.01
SW872, 0.3704 µM | 0.984 ± 0.029
SW872, 1.111 µM | 0.727 ± 0.024
SW872, 3.333 µM | 0.555 ± 0.065
SW872, 10 µM | 0.0547 ± 0.0073
SW1353, 0.00017 µM | 1.11 ± 0.036
SW1353, 0.00051 µM | 1.11 ± 0.031
SW1353, 0.00152 µM | 1.12 ± 0.011
SW1353, 0.00457 µM | 1.09 ± 0.03
SW1353, 0.01372 µM | 1.1 ± 0.019
SW1353, 0.04115 µM | 1.13 ± 0.04
SW1353, 0.1235 µM | 1.09 ± 0.021
SW1353, 0.3704 µM | 1.04 ± 0.023
SW1353, 1.111 µM | 0.896 ± 0.061
SW1353, 3.333 µM | 0.673 ± 0.024
SW1353, 10 µM | 0.0287 ± 0.0036
SYO-1, 0.00017 µM | 1.04 ± 0.055
SYO-1, 0.00051 µM | 1.03 ± 0.054
SYO-1, 0.00152 µM | 1.02 ± 0.063
SYO-1, 0.00457 µM | 1.04 ± 0.05
SYO-1, 0.01372 µM | 1.01 ± 0.027
SYO-1, 0.04115 µM | 0.989 ± 0.041
SYO-1, 0.1235 µM | 0.966 ± 0.02
SYO-1, 0.3704 µM | 0.966 ± 0.019
SYO-1, 1.111 µM | 0.868 ± 0.021
SYO-1, 3.333 µM | 0.641 ± 0.025
SYO-1, 10 µM | -0.0056 ± 0.0021
